“Also recorded” adds a separate entry of the source. Counter-ions that a name gives are not always drawn.
What was measured:
Format in all cases: physicochemical
[1] = Slurry experiments at room temperature (thermodynamic stability of crystal forms, X-ray diffraction); conditions: for Slurry Result: 7 days, room temperature, form by XRD
Method: Slurry experiments of Form I were performed at room temperature to verify if Form I is the thermodynamic crystal form. 0.050 g of Form I was suspended in 2 ml of solvent and stirred for 1 week. The sample was filtered and analyzed by X-ray diffraction. In the large majority of the experiments, Form I converts into Form II. […] By 1,4-Dioxane, a new crystal form was obtained named Form V. See Table 46 for the Form I slurries results (7 days).
Further slurry experiments of Form I were performed at room temperature using 0.5 g of powder in 10 mL of solvent to confirm the results obtained even in large scale.
0.050 g of Form I were suspended in 2 ml of solvent and stirred at room temperature for 4 weeks (30 days). The sample was filtered and analyzed by X-ray diffraction. By 1,4-Dioxane, Form V was obtained. By tetrahydrofuran, Form II and Form VII were obtained. […] See Table 47 for the Form I slurries results (30 days).
(§1) Slurry experiments of mixtures of Form I and Form II were performed at room temperature to verify their thermodynamic stability. 0.040 g of Form I+0.040 g of Form II were suspended in 4 ml of solvent and stirred for 1 week (7 days). The samples were filtered and analyzed by X-ray diffraction. By 1,4-Dioxane, Form V was obtained. […] See Table 48 for the Form I+Form II slurries results (7 days).
as §1, with “II” for “I”, “III” for “II”, “II+0.040” for “I+0.040”, “49” for “48”, “II+Form III” for “I+Form II”
as §1, with “II” for “I”, “IV” for “II”, “II+0.040” for “I+0.040”, “50” for “48”, “II+Form IV” for “I+Form II”
as §1, with “II” for “I”, “V” for “II”, “II+0.040” for “I+0.040”, “51” for “48”, “II+Form V” for “I+Form II”
as §1, with “II” for “I”, “VI” for “II”, “II+0.040” for “I+0.040”, “52” for “48”, “II+Form VI” for “I+Form II”
as §1, with “II” for “I”, “VII” for “II”, “II+0.040” for “I+0.040”, “53” for “48”, “II+Form VII” for “I+Form II”

[2] = Slurries in 2-propanol at room temperature, 50° C. and 80° C.; conditions: form by XRD
Method: 0.050 g of Form I were suspended in 4 ml of solvent and stirred at room temperature. for 1 week (7 days). The sample was filtered and analyzed by X-ray diffraction.
0.040 g of Form I+0.040 g of Form II were suspended in 4 ml of solvent and stirred at room temperature for 1 week (7 days). The sample was filtered and analyzed by X-ray diffraction experiments.
0.050 g of Form II were suspended in 4 ml of solvent and stirred at room temperature for 1 week (7 days). The sample was filtered and analyzed by X-ray diffraction experiments.
0.050 g of Form I were suspended in 4 ml of solvent and stirred at 50° C. for 1 Week (7 days). The sample was filtered and analyzed by X-ray diffraction experiments.
0.040 g of Form I+0.040 g of Form II were suspended in 4 ml of solvent and stirred at 50° C. for 1 week (7 days). The sample was filtered and analyzed by X-ray diffraction experiments.
Form I+Form II were suspended in solvent and stirred at 80° C. for 14 hours. The sample was filtered and analyzed by X-ray diffraction experiments. […] Slurry in 2-propanol at 80° C. is an atypical experiment because if we consider the boiling point of the solvent, it could be defined as a combination between a slurry and precipitation experiment. Form I was obtained during the precipitation from supersaturated solution by 2-propanol. However the high temperature and the reflux produce the energetic conditions needed by the stable crystal form (Form II) to convert to the metastable crystal form (Form I).

[3] = Stability tests on bupropion hydrobromide polymorphs in humidity chamber (XRD pattern); conditions: 40° C., 85% R.H., open sample-holder
Method: Stability tests were performed on bupropion hydrobromide Form I, Form II, Form III, Form IV, Form V and Form VI. The powders were stored in a controlled atmosphere (85% R.H.) at 40° C. Form I and Form II were stored for 7 and 30 days respectively, while the other forms were stored only for 30 days. The sample was positioned on the sample-holder which was introduced, without any cover, into the humidity chamber at 40° C. The layer of the sample on the sample-holder was about 0.5 cm.
In addition, stability tests were performed on bupropion hydrobromide Form VII.

[4] = TGA and DSC characterization; conditions: for TGA (mass change): successive mass-loss steps listed per polymorph; for DSC (onset ° C.): successive thermal events listed per polymorph
Method: The PXRD diffraction patterns were obtained on X-ray powder diffraction PANalytical X′pert Pro equipped with X′Celerator, in a measurement range between 3 and 40 2 theta. All the DSC experiments were performed with a DSC 7 Perkin Elmer instrument in a temperature range between 25° C. and 250° C. with a heating rate of 10° C./min.
All the TGA experiments were conducted with a TGA 7 Perkin Elmer instrument in a temperature range between 39° C. and 310° C. with a heating rate of 10° C./min.
PXRD, DSC, TGA and IR analyses were obtained for Bupropion Hydrobromide Polymorph Form I, Form II, Form III, Form IV, Form V, Form VI, and Form VII. PXRD analyses were obtained for the amorphous form. With respect to the PXRD analyses, the Peak List is shown for Form I, Form II, Form III, Form IV, Form V, Form VI, Form VII and the amorphous form in Table 56, Table 57, Table 58, Table 59, Table 60, Table 61, Table 62 and Table 63 respectively.

[5] = Stability tests on bupropion hydrobromide polymorphs in humidity chamber (XRD pattern); conditions: 28 days; 25° C.; 75% R.H.
[6] = Release of bupropion base from the salt; conditions: 150 mg of the salt tested
Method: It was previously observed that when 150 mg of bupropion HCl was tested for its release of bupropion, the base value that was released was 130 mg. However, when 150 mg of bupropion HBr was tested, the base value released was only 112 mg. Thus, the amount of bupropion HBr had to be increased in order to increase the base value from 112 mg to 130 mg, which was the target.

[7] = room temperature, 1 week (7 days)

For `Br.CC(NC(C)(C)C)C(=O)c1cccc(Cl)c1` (single isomer, unassigned) [Form II], the “Thermodynamic stability of the crystal form as shown by slurry experiments” value [1] was “thermodynamically stable crystal form; also recorded: thermodynamic stable form”, the “Slurry result in 2-propanol” value ([2]; mixture Form I+Form II, 80° C., 14 hours) was “converted to Form I” and the “Slurry result in 2-propanol” value [2, 7] was “Form II was obtained”. The “XRD pattern / crystal form after storage” value ([3]; 7 days) was “did not show modification”, the “XRD pattern / crystal form after storage” value ([3]; 30 days) was “did not show modification” and the “TGA (mass change)” value [4] was −93.35%.

In the case of `Br.CC(NC(C)(C)C)C(=O)c1cccc(Cl)c1` (single isomer, unassigned) [Form VI], the “XRD pattern / crystal form after storage” value ([3]; 30 days) is reported as “converted into a mixture of Form I+Form II”, the “TGA (mass change)” value [4] is reported as −97.68% and the “DSC (onset ° C.)” value [4] is reported as 235 °C.

In the case of `Br.CC(NC(C)(C)C)C(=O)c1cccc(Cl)c1` (centres unmarked) [Form I + Form II], the “Slurry Result” value ([1]; 1,2-Dimethoxy Ethane) is reported as “Form II”, the “Slurry Result” value ([1]; 1,4-Dioxane) is reported as “Form V” and the “Slurry Result” value ([1]; Acetone) is reported as “Form II”. For the same molecule, the “Slurry Result” value ([1]; Diethyl ether) was “Form II”, the “Slurry Result” value ([1]; Ethyl acetate) was “Form II” and the “Slurry Result” value ([1]; n-Hexan) was “Form II”. For the same molecule, the “Slurry Result” value ([1]; p-Xylene) was “Form II”, the “Slurry result in 2-propanol” value ([2]; 50° C., 1 week (7 days)) was “Form II was obtained” and the “Slurry result in 2-propanol” value [2, 7] was “Form II was obtained”.

With `Br.CC(NC(C)(C)C)C(=O)c1cccc(Cl)c1` (centres unmarked) [Form II + Form III] the “Slurry Result” value ([1]; 1,2-Dimethoxy Ethane) was “Form II”, the “Slurry Result” value ([1]; 1,4-Dioxane) was “Form V” and the “Slurry Result” value ([1]; Acetone) was “Form II”. The “Slurry Result” value ([1]; Diethyl ether) was “Form II”, the “Slurry Result” value ([1]; Ethyl acetate) was “Form II” and the “Slurry Result” value ([1]; n-Hexan) was “Form II”. The “Slurry Result” value ([1]; p-Xylene) was “Form II”.

For `Br.CC(NC(C)(C)C)C(=O)c1cccc(Cl)c1` (centres unmarked) [Form III], the “XRD pattern / crystal form after storage” value ([3]; 30 days) was “converted into Form I”.

In the case of `Br.CC(NC(C)(C)C)C(=O)c1cccc(Cl)c1` (centres unmarked) [Form IV], the “XRD pattern / crystal form after storage” value ([3]; 30 days) is reported as “converted into Form I”.

In the case of `Br.CC(NC(C)(C)C)C(=O)c1cccc(Cl)c1` (centres unmarked) [Form VII], the “DSC (onset ° C.)” value [4] is reported as 268.7 °C and the “XRD pattern / crystal form after storage” value [5] is reported as “stable form”.

In the case of `Br.CC(NC(C)(C)C)C(=O)c1cccc(Cl)c1` (centres unmarked) [Form V], the “XRD pattern / crystal form after storage” value ([3]; 30 days) is reported as “converted into Form I” and the “DSC (onset ° C.)” value [4] is reported as 237.85 °C.

With `CC(NC(C)(C)C)C(=O)c1cccc(Cl)c1` (centres unmarked) [bupropion HCl, reference compound] the “base value that was released” value [6] was 130 mg.
